In patent US9428496B2, “Thiazolamine derivative and use thereof as anti-picornaviral infection medicament” (Institute of Pharmacology and Toxicology Academy of …, priority 2010, dated 2016):
≈ marks a conversion by molar mass, not a printed value. Where two headings read alike, the source gives them in different places.

Key:
[1] = tested on: Vero cells; assay: Toxicity of compounds to the Vero host cells (TC50, TC0); format: cell-based
[2] = tested on: enterovirus Cox A16; assay: microbe, parasite or virus in culture; format: cell-based; conditions: for CoxA16 SI: CoxA16, Vero cells; for IC50: Enterovirus, read-out: CoxA16 IC50
Experimental: (§1) Anti-picornaviral activity of the compounds of the present invention in in vitro model Test item: activity screening of compounds against enteroviruses EV71 and Cox A16 Test principle: using Vero cells as virus host, the cytopathic effect of Vero cells induced by the inhibition of compounds against enteroviruses EV71 and Cox A16 was measured.
(§2) 1. Virus strains: enteroviruses EV71 (Shenzhen 98) and Cox A16, passaging in the laboratory.
(§3) Test Method: Vero cells were incubated in a 96-well culture plate. After 24 hours, they were infected with EV71 and Cox A16 by adsorption for 2 hours. After discarding the virus solution, maintenance solutions containing different concentrations of samples and positive controls were added, and, at the same time, cell control wells and virus control wells were set. […] The half inhibitory concentrations (IC50) of the samples against EV71 and Cox A16 were respectively calculated according to the Reed-Muench method.

[3] = tested on: enterovirus EV71 (Shenzhen 98); assay: Inhibition of cytopathic effect (CPE) induced by EV71 in Vero cells; format: cell-based; conditions: for EV71 IC50 / IC50: CPE in Vero cells, Reed-Muench method; for EV71 SI: EV71, Vero cells
Experimental: as §1, §2, §3

[4] = CPE in Vero cells, Reed-Muench method

Compound | TC0 ([1]; Vero cells) | TC50 ([1]; Vero cells) | CoxA16 IC50 [2, 4] | CoxA16 SI [2] | EV71 IC50 [3] | TC0 [1] | TC50 [1] | EV71 SI [3] | IC50 ([2]; Vero) | IC50 [3] | melting point | IC50 [2, 4]
2-{4-[5-(4-tert-butylphenoxy)pentyl]piperazin-1-yl}thiazole [Example 13] | 12.5 µg/mL | 25.0 µg/mL | 7.87 µg/mL | 3.2 | >12.5 µg/mL |  |  |  |  |  |  | 
2-{4-[5-(4-tert-butylphenoxy)pentyl]piperazin-1-yl}thiazole [Example 16] | 12.5 µg/mL | 25.0 µg/mL | 4.30 µg/mL | 5.8 | >12.5 µg/mL |  |  |  |  |  |  | 
2-{4-[5-(4-tert-butylphenoxy)pentyl]piperazin-1-yl}thiazole hydrochloride [Example 22] |  |  | 6.25 µg/mL | 4.0 | 1.97 µg/mL | 12.5 µg/mL | 25.0 µg/mL | 12.7 |  |  |  | 
5-{4-[3-(4′-ethoxybiphenyl-4-oxy)pentyl]piperazin-1-yl}thiazole [Example 15] |  |  | 100 µg/mL | >2.0 | >200.0 µg/mL | >200.0 µg/mL | >200.0 µg/mL |  |  |  |  | 
NC(=O)c1ncn([C@@H]2O[C@H](CO)[C@@H](O)[C@H]2O)n1 [Con, ribavirin, reference compound] | 500.0 µg/mL | 2000 µg/mL (≈ 8190 µM) |  |  |  |  |  |  | 363 µg/mL (≈ 1490 µM) | 517 µg/mL (≈ 2120 µM) |  | 
COc1ccc(OCCCCCN2CCN(c3nccs3)CC2)cc1 [Example 1, 2-{4-[5-(4-methoxyphenoxy)pentyl]piperazin-1-yl}thiazole] | 50.0 µg/mL | 100.0 µg/mL (≈ 277 µM) |  | 4.0 |  |  |  | 2.8 |  | 36.3 µg/mL (≈ 100 µM) | 83 to 85 °C | 25 µg/mL (≈ 69.2 µM)
CCOc1ccc(OCCCCCN2CCN(c3nccs3)CC2)cc1 [Example 2, 2-{4-[5-(4-ethoxyphenoxy)pentyl]piperazin-1-yl}thiazole] | 12.5 µg/mL | 25.0 µg/mL (≈ 66.6 µM) |  | 12.7 |  |  |  | 3.2 |  | 7.87 µg/mL (≈ 21 µM) | 79 to 81 °C | 1.97 µg/mL (≈ 5.25 µM)
Fc1ccc(OCCCCCN2CCN(c3nccs3)CC2)cc1 [Example 3, 2-{4-[5-(4-fluorophenoxy)pentyl]piperazin-1-yl}thiazole] | 12.5 µg/mL | 79.37 µg/mL (≈ 227 µM) |  |  |  |  |  |  |  | > 12.5 µg/mL | 42 to 44 °C | > 12.5 µg/mL
CCc1ccc(OCCCCCN2CCN(c3nccs3)CC2)cc1 [Example 4, 2-{4-[5-(4-ethylphenoxy)pentyl]piperazin-1-yl}thiazole] | 3.13 µg/mL | 12.5 µg/mL (≈ 34.8 µM) |  | 6.3 |  |  |  |  |  | > 3.13 µg/mL | 125 to 127 °C | 1.97 µg/mL (≈ 5.48 µM)
CC(C)c1ccc(OCCCCCN2CCN(c3nccs3)CC2)cc1 [Example 5, 2-{4-[5-(4-isopropylphenoxy)pentyl]piperazin-1-yl}thiazole] | 3.13 µg/mL | 6.25 µg/mL (≈ 16.7 µM) |  | 4.0 |  |  |  |  |  | > 3.13 µg/mL | 128 to 130 °C | 1.57 µg/mL (≈ 4.2 µM)
CC(C)(C)c1ccc(OCCCCCN2CCN(c3nccs3)CC2)cc1 [Example 6, 2-{4-[5-(4-tert-butylphenoxy)pentyl]piperazin-1-yl}thiazole] | 3.13 µg/mL | 6.25 µg/mL (≈ 16.1 µM) |  | 4.0 |  |  |  |  |  | > 3.13 µg/mL | 125 to 127 °C | 1.57 µg/mL (≈ 4.05 µM)
Cc1ccc(OCCCCCN2CCN(c3nccs3)CC2)cc1 [Example 7, 2-{4-[5-(4-methylphenoxy)pentyl]piperazin-1-yl}thiazole] | 3.13 µg/mL | 19.84 µg/mL (≈ 57.4 µM) |  |  |  |  |  |  |  | > 3.13 µg/mL | 125 to 127 °C | > 3.13 µg/mL
Cc1ccc(OCCCCCCN2CCN(c3nccs3)CC2)cc1 [Example 8, 2-{4-[6-(4-methylphenoxy)hexyl]piperazin-1-yl}thiazole] | 12.5 µg/mL | 25.0 µg/mL (≈ 69.5 µM) |  | 5.0 |  |  |  |  |  | > 12.5 µg/mL | 37 to 39 °C | 4.96 µg/mL (≈ 13.8 µM)
CCc1ccc(OCCCCCCN2CCN(c3nccs3)CC2)cc1 [Example 9, 2-{4-[6-(4-ethylphenoxy)hexyl]piperazin-1-yl}thiazole] | 3.13 µg/mL | 6.25 µg/mL (≈ 16.7 µM) |  | 2.0 |  |  |  | 3.2 |  | 1.97 µg/mL (≈ 5.27 µM) | 21 to 23 °C | 3.13 µg/mL (≈ 8.38 µM)
c1ccc(OCCCCCCN2CCN(c3nccs3)CC2)cc1 [Example 10, 2-[4-(6-phenoxyhexyl)piperazin-1-yl]thiazole] | 12.5 µg/mL | 25.0 µg/mL (≈ 72.4 µM) |  | 2.0 |  |  |  |  |  | > 12.5 µg/mL | 37 to 39 °C | 12.5 µg/mL (≈ 36.2 µM)
CC(C)(C)c1ccc(OCCCCCCN2CCN(c3nccs3)CC2)cc1 [Example 11, 2-{4-[6-(4-tert-butylphenoxy)hexyl]piperazin-1-yl}thiazole] | 3.13 µg/mL | 6.25 µg/mL (≈ 15.6 µM) |  | 2.0 |  |  |  | 4.0 |  | 1.57 µg/mL (≈ 3.91 µM) | 30 to 32 °C | 3.13 µg/mL (≈ 7.79 µM)
Fc1ccc(OCCCCCCN2CCN(c3nccs3)CC2)cc1 [Example 12, 2-{4-[6-(4-fluorophenoxy)hexyl]piperazin-1-yl}thiazole] | 12.5 µg/mL | 25.0 µg/mL (≈ 68.8 µM) |  |  |  |  |  |  |  | > 12.5 µg/mL | 58 to 60 °C | > 12.5 µg/mL
Brc1ccc(OCCCCCCN2CCN(c3nccs3)CC2)cc1 [Example 14, 2-{4-[6-(4-bromophenoxy)hexyl]piperazin-1-yl}thiazole] | 12.5 µg/mL | 31.5 µg/mL (≈ 74.2 µM) |  | 5.0 |  |  |  |  |  | > 12.5 µg/mL | 66 to 68 °C | 6.25 µg/mL (≈ 14.7 µM)
Brc1ccc(OCCCCCN2CCN(c3nccs3)CC2)cc1 [Example 17, 2-{4-[5-(4-bromophenoxy)pentyl]piperazin-1-yl}thiazole] | 0.78 µg/mL | 4.96 µg/mL (≈ 12.1 µM) |  |  |  |  |  |  |  | > 0.78 µg/mL | 73 to 75 °C | > 0.78 µg/mL
Brc1ccc(OCCCCCN2CCN(c3nccs3)CC2)cc1.Cl [Example 18, 2-{4-[5-(4-bromophenoxy)pentyl]piperazin-1-yl}thiazole hydrochloride] | 0.78 µg/mL | 4.96 µg/mL |  |  |  |  |  |  |  | > 0.78 µg/mL | 221 to 223 °C | > 0.78 µg/mL
Cl.c1ccc(OCCCCCN2CCN(c3nccs3)CC2)cc1 [Example 19, 2-[4-(5-phenoxypentyl)piperazin-1-yl]thiazole hydrochloride] | 12.5 µg/mL | 79.37 µg/mL |  | 6.3 |  |  |  |  |  | > 12.5 µg/mL | 145 to 147 °C | 12.5 µg/mL
COc1ccc(OCCCCCCN2CCN(c3nccs3)CC2)cc1.Cl [Example 20, 2-{4-[6-(4-methoxyphenoxy)hexyl]piperazin-1-yl}thiazole hydrochloride] | 3.13 µg/mL | 63.0 µg/mL |  |  |  |  |  |  |  | > 3.13 µg/mL | 221 to 223 °C | > 3.13 µg/mL
CCOc1ccc(OCCCCCCN2CCN(c3nccs3)CC2)cc1.Cl [Example 21, 2-{4-[6-(4-ethoxyphenoxy)hexyl]piperazin-1-yl}thiazole hydrochloride] | 3.13 µg/mL | 25.0 µg/mL |  | 8.0 |  |  |  | 12.7 |  | 1.97 µg/mL | 222 to 224 °C | 3.13 µg/mL
